Laboratory results taken from ChEMBL document CHEMBL5058649, “Data for DCP probe BAY 1816032” (2022).
Calls of active or inactive are those of the source. The calls are words filed in the database; no cut-off is given here.

Key:
[1] = biological target: Serine/threonine-protein kinase MRCK beta (Homo sapiens) (UniProt Q9Y5S2); experiment: MRCKB DiscoveRx kinase panel; conditions: Compound concentration 1.0 uM
[2] = biological target: 5-hydroxytryptamine receptor 5A (Homo sapiens) (UniProt P47898); conditions: Compound concentration 10.0 uM
[3] = biological target: Phosphatidylinositol 3-kinase catalytic subunit type 3 (Homo sapiens) (UniProt Q8NEB9); experiment: VPS34 DiscoveRx kinase panel; conditions: Compound concentration 1.0 uM
[4] = biological target: Aurora kinase A (Homo sapiens) (UniProt O14965); experiment: AURKA DiscoveRx kinase panel; conditions: Compound concentration 1.0 uM
[5] = biological target: Calcium/calmodulin-dependent protein kinase type 1 (Homo sapiens) (UniProt Q14012); experiment: CAMK1 DiscoveRx kinase panel; conditions: Compound concentration 1.0 uM
[6] = biological target: Mitogen-activated protein kinase kinase kinase 11 (Homo sapiens) (UniProt Q16584); experiment: MLK3 DiscoveRx kinase panel; conditions: Compound concentration 1.0 uM
[7] = biological target: Cyclin-dependent kinase 17 (Homo sapiens) (UniProt Q00537); experiment: PCTK2 DiscoveRx kinase panel; conditions: Compound concentration 1.0 uM
[8] = biological target: Tyrosine-protein kinase Yes (Homo sapiens) (UniProt P07947); experiment: YES DiscoveRx kinase panel; conditions: Compound concentration 1.0 uM
Chain of Tyrosine-protein kinase Yes (Homo sapiens) (P07947 2-543 limits assumed): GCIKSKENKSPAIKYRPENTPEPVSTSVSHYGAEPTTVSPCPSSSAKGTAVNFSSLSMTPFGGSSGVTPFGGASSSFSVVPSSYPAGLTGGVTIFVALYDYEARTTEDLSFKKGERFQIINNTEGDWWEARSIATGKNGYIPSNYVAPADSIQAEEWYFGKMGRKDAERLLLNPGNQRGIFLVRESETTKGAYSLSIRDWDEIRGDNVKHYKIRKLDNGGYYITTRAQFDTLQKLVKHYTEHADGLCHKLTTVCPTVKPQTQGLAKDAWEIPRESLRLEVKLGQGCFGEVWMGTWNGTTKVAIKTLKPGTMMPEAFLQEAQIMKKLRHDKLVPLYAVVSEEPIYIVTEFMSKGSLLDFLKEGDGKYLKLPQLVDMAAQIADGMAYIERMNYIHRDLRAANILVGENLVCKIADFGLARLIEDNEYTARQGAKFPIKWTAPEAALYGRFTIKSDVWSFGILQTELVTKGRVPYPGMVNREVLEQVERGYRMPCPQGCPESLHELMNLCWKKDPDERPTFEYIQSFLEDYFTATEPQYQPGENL

MDA-MB-468 = experiment: MDA-MB-468 cell line Proliferation assay; assay type: functional, Homo sapiens; conditions: time 4 day
[9] = biological target: Phosphatidylinositol 4,5-bisphosphate 3-kinase catalytic subunit gamma isoform (Homo sapiens) (UniProt P48736); experiment: PIK3CG DiscoveRx kinase panel; conditions: Compound concentration 1.0 uM
[10] = biological target: Serine/threonine-protein kinase TBK1 (Homo sapiens) (UniProt Q9UHD2); experiment: TBK1 DiscoveRx kinase panel; conditions: Compound concentration 1.0 uM
Rattus norvegicus = species on record: Rattus norvegicus; experiment: Inhibition of Glutamate, NMDA, Phencyclidine at 10 µM in the Eurofins-Panlabs radioligand binding assay (Eurofins_assay_233000); assay type: protein-complex assay; conditions: Compound concentration 10.0 uM
[11] = biological target: NUAK family SNF1-like kinase 1 (Homo sapiens) (UniProt O60285); experiment: ARK5 DiscoveRx kinase panel; conditions: Compound concentration 1.0 uM
Chain of NUAK family SNF1-like kinase 1 (Homo sapiens) (O60285 whole entry): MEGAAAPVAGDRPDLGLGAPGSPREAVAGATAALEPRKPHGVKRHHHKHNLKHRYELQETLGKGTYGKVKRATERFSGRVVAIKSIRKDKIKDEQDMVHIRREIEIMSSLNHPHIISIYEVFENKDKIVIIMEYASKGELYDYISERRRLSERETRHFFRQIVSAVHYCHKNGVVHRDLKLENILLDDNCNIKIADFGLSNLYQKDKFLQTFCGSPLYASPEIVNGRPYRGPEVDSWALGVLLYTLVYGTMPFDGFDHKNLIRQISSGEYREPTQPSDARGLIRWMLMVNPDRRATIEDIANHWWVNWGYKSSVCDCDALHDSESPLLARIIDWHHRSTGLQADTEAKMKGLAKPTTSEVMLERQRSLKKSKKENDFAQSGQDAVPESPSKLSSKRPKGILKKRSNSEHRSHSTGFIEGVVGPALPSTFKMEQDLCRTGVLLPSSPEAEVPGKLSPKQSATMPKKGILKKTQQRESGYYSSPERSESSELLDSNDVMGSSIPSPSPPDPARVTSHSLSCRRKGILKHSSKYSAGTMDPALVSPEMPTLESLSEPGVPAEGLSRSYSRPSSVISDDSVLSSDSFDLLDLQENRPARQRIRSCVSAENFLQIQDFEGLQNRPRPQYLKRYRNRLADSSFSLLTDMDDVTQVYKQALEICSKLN

[12] = biological target: Cyclin-dependent kinase 7 (Homo sapiens) (UniProt P50613); experiment: CDK7 DiscoveRx kinase panel; conditions: Compound concentration 1.0 uM
[13] = biological target: Alpha-1D adrenergic receptor (Homo sapiens) (UniProt P25100); experiment: Inhibition of Adrenergic alpha1D at 10 µM in the Eurofins-Panlabs radioligand binding assay (Eurofins_assay_203400); conditions: Compound concentration 10.0 uM
[14] = biological target: Histamine H2 receptor (Homo sapiens) (UniProt P25021); conditions: Compound concentration 10.0 uM
Chain of Histamine H2 receptor (Homo sapiens) (P25021 whole entry): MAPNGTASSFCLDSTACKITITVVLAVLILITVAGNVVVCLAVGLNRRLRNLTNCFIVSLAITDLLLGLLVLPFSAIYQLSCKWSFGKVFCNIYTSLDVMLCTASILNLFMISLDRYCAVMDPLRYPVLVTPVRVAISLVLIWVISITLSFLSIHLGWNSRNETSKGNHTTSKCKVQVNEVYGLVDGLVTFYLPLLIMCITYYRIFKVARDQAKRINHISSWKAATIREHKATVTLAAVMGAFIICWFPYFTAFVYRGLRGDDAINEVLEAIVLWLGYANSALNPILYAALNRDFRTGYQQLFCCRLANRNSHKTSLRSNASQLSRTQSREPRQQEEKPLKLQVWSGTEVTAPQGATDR

[15] = biological target: Serine/threonine-protein kinase 33 (Homo sapiens) (UniProt Q9BYT3); experiment: STK33 DiscoveRx kinase panel; conditions: Compound concentration 1.0 uM
Caco-2 = experiment: Caco2 cell line Proliferation assay; assay type: functional, Homo sapiens; conditions: time 4 day
[16] = biological target: Mast/stem cell growth factor receptor Kit (Homo sapiens) (UniProt P10721); experiment: KIT DiscoveRx kinase panel; conditions: Compound concentration 1.0 uM
[17] = biological target: 5-hydroxytryptamine receptor 1B (Homo sapiens) (UniProt P28222); experiment: Serotonin (5-Hydroxytryptamine) 5-HT1B Eurofins-Panlabs radioligand binding assay; set-up: ligand concentration 1 nM; conditions: Compound concentration 10.0 uM
[18] = biological target: Hepatocyte growth factor receptor (Homo sapiens) (UniProt P08581); experiment: MET DiscoveRx kinase panel; conditions: Compound concentration 1.0 uM
[19] = biological target: High affinity nerve growth factor receptor (Homo sapiens) (UniProt P04629); experiment: TRKA DiscoveRx kinase panel; conditions: Compound concentration 1.0 uM
[20] = biological target: Mitogen-activated protein kinase 7 (Homo sapiens) (UniProt Q13164); experiment: ERK5 DiscoveRx kinase panel; conditions: Compound concentration 1.0 uM
[21] = biological target: Voltage-dependent N-type calcium channel subunit alpha-1B (Homo sapiens) (UniProt Q00975); experiment: Inhibition of Calcium Channel N-Type at 10 µM in the Eurofins-Panlabs radioligand binding assay (Eurofins_assay_216000); conditions: Rattus norvegicus; Compound concentration 10.0 uM
[22] = biological target: 5'-AMP-activated protein kinase catalytic subunit alpha-1 (Homo sapiens) (UniProt Q13131); experiment: AMPK-alpha1 DiscoveRx kinase panel; conditions: Compound concentration 1.0 uM
[23] = biological target: Discoidin domain-containing receptor 2 (Homo sapiens) (UniProt Q16832); experiment: DDR2 DiscoveRx kinase panel; conditions: Compound concentration 1.0 uM
[24] = biological target: Mitotic checkpoint serine/threonine-protein kinase BUB1 (Homo sapiens, UniProt O43683); experiment: BUB1 biochemical assay (low ATP)
Chain of Mitotic checkpoint serine/threonine-protein kinase BUB1 (O43683 whole entry): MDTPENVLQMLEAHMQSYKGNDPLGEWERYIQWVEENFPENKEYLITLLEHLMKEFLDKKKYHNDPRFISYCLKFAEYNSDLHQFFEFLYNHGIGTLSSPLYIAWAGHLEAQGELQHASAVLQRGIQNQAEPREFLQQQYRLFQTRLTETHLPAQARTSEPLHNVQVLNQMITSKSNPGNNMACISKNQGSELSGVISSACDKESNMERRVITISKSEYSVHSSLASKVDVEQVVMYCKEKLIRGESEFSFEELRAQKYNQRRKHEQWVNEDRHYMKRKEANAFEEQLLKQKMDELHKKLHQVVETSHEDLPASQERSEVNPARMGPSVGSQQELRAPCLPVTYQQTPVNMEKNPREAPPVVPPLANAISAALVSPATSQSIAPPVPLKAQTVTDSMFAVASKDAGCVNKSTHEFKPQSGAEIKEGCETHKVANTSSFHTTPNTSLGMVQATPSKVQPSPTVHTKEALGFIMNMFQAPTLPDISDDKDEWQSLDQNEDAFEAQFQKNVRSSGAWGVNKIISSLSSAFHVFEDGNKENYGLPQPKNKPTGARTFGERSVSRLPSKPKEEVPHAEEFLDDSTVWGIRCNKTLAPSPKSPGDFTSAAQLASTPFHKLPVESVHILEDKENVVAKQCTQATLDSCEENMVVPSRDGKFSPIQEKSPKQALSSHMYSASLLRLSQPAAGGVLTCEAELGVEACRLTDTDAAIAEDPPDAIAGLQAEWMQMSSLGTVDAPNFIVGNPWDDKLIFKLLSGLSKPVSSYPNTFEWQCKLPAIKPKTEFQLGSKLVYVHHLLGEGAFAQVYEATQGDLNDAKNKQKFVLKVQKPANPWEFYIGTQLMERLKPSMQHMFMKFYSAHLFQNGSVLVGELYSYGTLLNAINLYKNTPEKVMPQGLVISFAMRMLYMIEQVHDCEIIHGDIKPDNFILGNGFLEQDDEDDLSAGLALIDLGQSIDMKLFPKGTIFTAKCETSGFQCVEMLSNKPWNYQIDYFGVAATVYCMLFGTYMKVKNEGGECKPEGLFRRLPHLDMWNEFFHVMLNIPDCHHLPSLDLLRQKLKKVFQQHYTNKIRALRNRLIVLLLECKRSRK

[25] = biological target: Death-associated protein kinase 3 (Homo sapiens) (UniProt O43293); experiment: DAPK3 DiscoveRx kinase panel; conditions: Compound concentration 1.0 uM
Chain of Death-associated protein kinase 3 (Homo sapiens) (O43293 whole entry, looked up): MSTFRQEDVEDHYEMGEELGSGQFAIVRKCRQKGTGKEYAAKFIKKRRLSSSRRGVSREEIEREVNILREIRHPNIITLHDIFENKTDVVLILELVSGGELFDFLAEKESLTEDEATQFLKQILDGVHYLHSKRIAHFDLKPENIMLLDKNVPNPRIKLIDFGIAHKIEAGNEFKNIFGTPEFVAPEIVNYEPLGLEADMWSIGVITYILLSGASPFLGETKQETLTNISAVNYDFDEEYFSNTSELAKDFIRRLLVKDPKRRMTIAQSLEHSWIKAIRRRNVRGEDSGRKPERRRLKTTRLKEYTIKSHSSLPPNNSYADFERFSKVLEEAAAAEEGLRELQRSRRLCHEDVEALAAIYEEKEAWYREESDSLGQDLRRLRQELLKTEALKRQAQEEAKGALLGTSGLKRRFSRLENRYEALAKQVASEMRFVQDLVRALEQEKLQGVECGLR

[26] = biological target: Dual specificity mitogen-activated protein kinase kinase 6 (Homo sapiens) (UniProt P52564); experiment: MEK6 DiscoveRx kinase panel; conditions: Compound concentration 1.0 uM
[27] = biological target: Receptor-interacting serine/threonine-protein kinase 2 (Homo sapiens) (UniProt O43353); experiment: RIPK2 DiscoveRx kinase panel; conditions: Compound concentration 1.0 uM
[28] = biological target: Serine/threonine-protein kinase pim-1 (Homo sapiens) (UniProt P11309); experiment: PIM1 DiscoveRx kinase panel; conditions: Compound concentration 1.0 uM
Chain of Serine/threonine-protein kinase pim-1 (Homo sapiens) (P11309 whole entry, looked up): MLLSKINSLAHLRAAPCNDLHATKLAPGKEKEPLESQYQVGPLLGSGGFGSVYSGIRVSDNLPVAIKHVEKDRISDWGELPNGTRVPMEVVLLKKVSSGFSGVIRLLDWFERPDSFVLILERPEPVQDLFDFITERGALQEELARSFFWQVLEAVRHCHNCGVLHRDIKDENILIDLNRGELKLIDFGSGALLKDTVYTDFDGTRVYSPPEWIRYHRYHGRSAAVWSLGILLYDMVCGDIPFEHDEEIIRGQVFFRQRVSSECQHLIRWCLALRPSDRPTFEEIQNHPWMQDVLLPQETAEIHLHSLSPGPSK

[29] = biological target: Mitogen-activated protein kinase kinase kinase 20 (Homo sapiens) (UniProt Q9NYL2); experiment: ZAK DiscoveRx kinase panel; conditions: Compound concentration 1.0 uM
Chain of Mitogen-activated protein kinase kinase kinase 20 (Homo sapiens) (Q9NYL2 2-800 limits assumed): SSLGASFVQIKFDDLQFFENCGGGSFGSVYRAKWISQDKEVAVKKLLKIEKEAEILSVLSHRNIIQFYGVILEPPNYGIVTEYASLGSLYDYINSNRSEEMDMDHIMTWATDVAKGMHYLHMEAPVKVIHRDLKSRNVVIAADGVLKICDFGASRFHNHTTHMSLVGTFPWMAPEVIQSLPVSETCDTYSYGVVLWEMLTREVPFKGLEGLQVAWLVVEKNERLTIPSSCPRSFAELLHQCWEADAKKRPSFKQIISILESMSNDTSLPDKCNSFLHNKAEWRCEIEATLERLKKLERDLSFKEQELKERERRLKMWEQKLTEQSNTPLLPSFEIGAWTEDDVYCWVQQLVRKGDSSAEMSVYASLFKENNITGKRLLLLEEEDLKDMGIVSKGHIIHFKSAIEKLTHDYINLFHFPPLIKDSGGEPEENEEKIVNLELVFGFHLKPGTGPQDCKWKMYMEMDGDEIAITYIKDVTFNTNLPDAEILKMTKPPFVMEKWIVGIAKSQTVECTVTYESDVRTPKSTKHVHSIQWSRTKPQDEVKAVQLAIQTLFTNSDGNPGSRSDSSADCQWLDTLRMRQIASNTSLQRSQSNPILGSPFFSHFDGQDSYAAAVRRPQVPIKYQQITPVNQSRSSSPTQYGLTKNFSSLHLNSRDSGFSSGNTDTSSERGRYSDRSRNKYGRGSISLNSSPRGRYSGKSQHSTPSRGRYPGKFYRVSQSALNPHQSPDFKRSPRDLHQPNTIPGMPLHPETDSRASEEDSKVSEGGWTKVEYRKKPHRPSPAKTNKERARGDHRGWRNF

[30] = biological target: Mitogen-activated protein kinase kinase kinase 1 (Homo sapiens) (UniProt Q13233); experiment: MAP3K1 DiscoveRx kinase panel; conditions: Compound concentration 1.0 uM
[31] = biological target: Serine/threonine-protein kinase TAO2 (Homo sapiens) (UniProt Q9UL54); experiment: TAOK2 DiscoveRx kinase panel; conditions: Compound concentration 1.0 uM
MAO-B = MAO-B (Homo sapiens, UniProt P27338); experiment: Inhibition of Monoamine Oxidase MAO-B at compound concentration of 10.0 uM in the Eurofins-Panlabs enzyme assay (Eurofins_assay_140120); set-up: substrate with concentration 50 uM Kynuramine, incubation time 60 min, incubation temperature 37 C; conditions: human recombinant MAO-B expressed in insect Hi5 cells, probe Kynuramine (50 uM), compound concentration 10 uM
[32] = biological target: Testis-specific serine/threonine-protein kinase 3 (Homo sapiens) (UniProt Q96PN8); experiment: TSSK3 DiscoveRx kinase panel; conditions: Compound concentration 1.0 uM
[33] = biological target: Death-associated protein kinase 1 (Homo sapiens) (UniProt P53355); experiment: DAPK1 DiscoveRx kinase panel; conditions: Compound concentration 1.0 uM
[34] = biological target: Sodium-dependent noradrenaline transporter (Homo sapiens, UniProt P23975); conditions: Compound concentration 10.0 uM
[35] = biological target: Myosin light chain kinase 2, skeletal/cardiac muscle (Homo sapiens) (UniProt Q9H1R3); experiment: MYLK2 DiscoveRx kinase panel; conditions: Compound concentration 1.0 uM
[36] = biological target: Ephrin type-A receptor 2 (Homo sapiens) (UniProt P29317); experiment: EPHA2 DiscoveRx kinase panel; conditions: Compound concentration 1.0 uM
[37] = biological target: Fibroblast growth factor receptor 3 (Homo sapiens) (UniProt P22607); experiment: FGFR3 DiscoveRx kinase panel; conditions: Compound concentration 1.0 uM
Chain of Fibroblast growth factor receptor 3 (Homo sapiens) (P22607 23-806 limits assumed): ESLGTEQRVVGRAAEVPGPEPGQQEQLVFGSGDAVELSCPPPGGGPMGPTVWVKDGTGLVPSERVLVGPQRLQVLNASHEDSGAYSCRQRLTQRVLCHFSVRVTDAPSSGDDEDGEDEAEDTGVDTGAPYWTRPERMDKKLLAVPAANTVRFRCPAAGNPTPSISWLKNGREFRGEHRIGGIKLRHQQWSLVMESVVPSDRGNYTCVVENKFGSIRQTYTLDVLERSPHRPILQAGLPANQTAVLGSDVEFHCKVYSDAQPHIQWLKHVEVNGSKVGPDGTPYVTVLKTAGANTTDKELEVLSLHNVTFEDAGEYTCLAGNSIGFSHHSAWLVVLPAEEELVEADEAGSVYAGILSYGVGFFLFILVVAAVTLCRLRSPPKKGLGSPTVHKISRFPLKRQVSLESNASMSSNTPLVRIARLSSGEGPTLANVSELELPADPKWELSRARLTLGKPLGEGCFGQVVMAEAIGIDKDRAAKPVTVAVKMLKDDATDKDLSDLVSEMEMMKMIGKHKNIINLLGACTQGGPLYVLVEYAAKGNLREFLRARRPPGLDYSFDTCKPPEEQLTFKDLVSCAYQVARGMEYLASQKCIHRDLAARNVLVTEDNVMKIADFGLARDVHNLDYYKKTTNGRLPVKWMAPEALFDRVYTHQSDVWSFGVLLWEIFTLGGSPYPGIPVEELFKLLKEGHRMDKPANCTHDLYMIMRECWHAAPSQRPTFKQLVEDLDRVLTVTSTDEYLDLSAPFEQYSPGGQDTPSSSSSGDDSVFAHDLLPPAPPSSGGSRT

[38] = biological target: Phosphatidylinositol 3-kinase C2 domain-containing subunit gamma (Homo sapiens) (UniProt O75747); experiment: PIK3C2G DiscoveRx kinase panel; conditions: Compound concentration 1.0 uM
[39] = biological target: Inhibitor of nuclear factor kappa-B kinase subunit epsilon (Homo sapiens) (UniProt Q14164); experiment: IKK-epsilon DiscoveRx kinase panel; conditions: Compound concentration 1.0 uM
[40] = biological target: Mitogen-activated protein kinase kinase kinase 4 (Homo sapiens) (UniProt Q9Y6R4); experiment: MAP3K4 DiscoveRx kinase panel; conditions: Compound concentration 1.0 uM
[41] = biological target: Serine/threonine-protein kinase 32B (Homo sapiens) (UniProt Q9NY57); experiment: YANK2 DiscoveRx kinase panel; conditions: Compound concentration 1.0 uM
[42] = biological target: Adenosine Transporter (Cavia porcellus) (UniProt H0V4R7+H0UUG1+H0V3Z5); experiment: Inhibition of Transporter, Adenosine at compound concentration of 10.0 uM in the Eurofins-Panlabs radioligand binding assay (Eurofins_assay_202000); assay type: protein assay; set-up: ligand concentration 0.5 nM, non-specific ligand with concentration 5 uM Nitrobenzylthioinosine, incubation time 30 min, incubation temperature 25 C; conditions: Compound concentration 10.0 uM
[43] = biological target: MAP kinase-interacting serine/threonine-protein kinase 1 (Homo sapiens) (UniProt Q9BUB5); experiment: MKNK1 DiscoveRx kinase panel; conditions: Compound concentration 1.0 uM

COc1cnccc1Nc1nc(-c2nn(Cc3c(F)cc(OCCO)cc3F)c3ccccc23)ncc1OC
residual activity [1]: 98%
inhibition [2]: -6.97%
residual activity [3]: 55%
residual activity [4]: 100%
residual activity [5]: 52%
residual activity [6]: 100%
residual activity [7]: 87%
residual activity [8]: 100%
Cell Proliferation IC50 (MDA-MB-468): 1000 nM
residual activity [9]: 80%
residual activity [10]: 94%
inhibition (Rattus norvegicus): 2%
residual activity [11]: 92%
residual activity [12]: 100%
inhibition [13]: 24%
inhibition [14]: 9.79%
residual activity [15]: 100%
Cell Proliferation IC50 (Caco-2): 1000 nM
residual activity [16]: 82%
inhibition [17]: 15%
residual activity [18]: 80%
residual activity [19]: 92%
residual activity [20]: 94%
inhibition [21]: 10%
residual activity [22]: 100%
residual activity [23]: 93%
IC50 [24]: 6.5 nM (active)
residual activity [25]: 84%
residual activity [26]: 89%
residual activity [27]: 82%
residual activity [28]: 100%
residual activity [29]: 42%
residual activity [30]: 92%
residual activity [31]: 100%
inhibition at 60 min, 10 µM (MAO-B): -15% (not active)
residual activity [32]: 90%
residual activity [33]: 100%
inhibition [34]: 26%
residual activity [35]: 69%
residual activity [36]: 100%
residual activity [37]: 100%
residual activity [38]: 98%
residual activity [39]: 92%
residual activity [40]: 80%
residual activity [41]: 82%
inhibition [42]: 71%
residual activity [43]: 100%
